Entries after “also recorded” stand apart in the source; their conditions may differ.
Test system: rat pulmonary artery
Test: BH4 depleted (DAHP) rat pulmonary artery relaxation
Protocol: Rat pulmonary artery or aorta rings (as above) were placed in 15 ml tubes containing 2-3 ml of MEM (minimal essential medium) solution containing 0.1% bovine serum albumin, 100 U/ml penicillin and […] streptomycin. Some of the tubes in addition received diamino-hydroxy-pyrimidine (DAHP) 10^−2 M, an inhibitor of GTP cyclohydrolase, the rate-limiting step in tetrahydrobiopterin synthesis. The tubes were incubated at 37° C. for six hours. […] After the incubation with DAHP or the control incubation with the medium (MEM) alone, the rings were removed and then their relaxation in response to the analogue (or solvent NH4OH) was tested as above. Dose response curves of DAHP-treated tissues were compared to the control tissues treated in MEM alone for 6 hrs. The results are shown graphically in FIGS. 3 and 4. […] Thus WSG1002 is acting to enhance the ability of the endothelium to form NO and is not acting merely as a NO donor. The above procedures were used to mimic cardiovascular disease, by treating aorta and pulmonary artery rings with an inhibitor of the enzyme GTP cyclohydrolase, which is the rate-limiting step in the formation of tetrahydrobiopterin by cells. Treatment with this inhibitor, DAHP, for 6 hours reduced endogenous tetrahydrobiopterin levels in arteries to 4% of the normal content. […] This was found in both pulmonary artery and aorta (FIGS. 3 and 4). […] The only effect seen was a contraction—the opposite to the action of WSG1002—at the highest concentration of tetrahydrobiopterin. […] WSG1002 has an EC50 of approximately 10 nM.

EC50 (Rattus norvegicus, DAHP-treated artery rings, tissue not specified): ~10 nM
SMILES: CC(=O)C1=Nc2c(nc(N)[nH]c2=O)NC1(C)C [wsg1002, 6-Acetyl-2-amino-7,7-dimethyl-7,8-dihydro-3H-pteridin-4-one]
relaxation of rat pulmonary artery rings (DAHP 10^-2 M for 6 h, tetrahydrobiopterin depleted): significant and physiologically important vasodilatation; also recorded: substantial relaxation
relaxation of pulmonary artery ring in presence of L-NAME (L-NAME 100 μM, same result in normal and DAHP-treated rings): no relaxation

— patent publication US20060194800A1, “Pteridine derivatives as nitric oxide synthase activators” (University of Strathclyde, priority 2005, published 2006)
